Results taken from PubChem BioAssay (NCI).
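Compound exposure: 48 hours, 5 concentrations, 96-well plates. At the GI50, growth is halved. TGI: total growth inhibition.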

Experiments:
Assay in all cases: NCI tumour cell line growth inhibition, 48 h
U251 CNS = test system: U251 CNS
SN12C renal = test system: SN12C renal
HS 578T breast = test system: HS 578T breast
UACC-62 melanoma = test system: UACC-62 melanoma
SF-295 CNS = test system: SF-295 CNS
M14 melanoma = test system: M14 melanoma
MDA-MB-435 = test system: MDA-MB-435
HOP-62 NSCLC = test system: HOP-62 NSCLC
UACC-257 melanoma = test system: UACC-257 melanoma
DU-145 prostate = test system: DU-145 prostate
IGROV1 ovarian = test system: IGROV1 ovarian
CAKI-1 renal = test system: CAKI-1 renal
OVCAR-3 ovarian = test system: OVCAR-3 ovarian
HCC-2998 colon = test system: HCC-2998 colon
TK-10 renal = test system: TK-10 renal
SK-MEL-28 melanoma = test system: SK-MEL-28 melanoma
OVCAR-4 ovarian = test system: OVCAR-4 ovarian
MDA-MB-231 breast = test system: MDA-MB-231 breast
NCI/ADR-RES ovarian = test system: NCI/ADR-RES ovarian
SF-268 CNS = test system: SF-268 CNS
SK-MEL-5 melanoma = test system: SK-MEL-5 melanoma
COLO 205 colon = test system: COLO 205 colon
SK-OV-3 ovarian = test system: SK-OV-3 ovarian
HCT-15 colon = test system: HCT-15 colon
OVCAR-5 ovarian = test system: OVCAR-5 ovarian
RPMI-8226 leukemia = test system: RPMI-8226 leukemia
BT-549 breast = test system: BT-549 breast
EKVX NSCLC = test system: EKVX NSCLC
A498 renal = test system: A498 renal
T-47D breast = test system: T-47D breast
MALME-3M melanoma = test system: MALME-3M melanoma
A549 NSCLC = test system: A549 NSCLC
HOP-92 NSCLC = test system: HOP-92 NSCLC
HL-60(TB) leukemia = test system: HL-60(TB) leukemia
ACHN renal = test system: ACHN renal
MCF7 breast = test system: MCF7 breast
HT29 colon = test system: HT29 colon
NCI-H460 lung = test system: NCI-H460 lung
SNB-19 CNS = test system: SNB-19 CNS
RXF 393 renal = test system: RXF 393 renal
K-562 leukemia = test system: K-562 leukemia
SNB-75 CNS = test system: SNB-75 CNS
MOLT-4 leukemia = test system: MOLT-4 leukemia
OVCAR-8 ovarian = test system: OVCAR-8 ovarian
UO-31 renal = test system: UO-31 renal
KM12 colon = test system: KM12 colon
PC-3 prostate = test system: PC-3 prostate
SF-539 CNS = test system: SF-539 CNS
NCI-H226 lung = test system: NCI-H226 lung
HCT-116 colon = test system: HCT-116 colon
SK-MEL-2 melanoma = test system: SK-MEL-2 melanoma
786-0 renal = test system: 786-0 renal
NCI-H522 lung = test system: NCI-H522 lung
LOX IMVI melanoma = test system: LOX IMVI melanoma
SW-620 colon = test system: SW-620 colon
CCRF-CEM leukemia = test system: CCRF-CEM leukemia
NCI-H23 lung = test system: NCI-H23 lung

## C=C1C(=O)O[C@H]2[C@H]1CC/C(COC(=O)/C=C/C(=O)NCc1ccc(Cn3c(=O)sn(-c4ccccc4)c3=O)cc1)=C\CC[C@@]1(C)O[C@@H]21
U251 CNS
  GI50: 3.46 µM
  TGI: 12.1 µM
SN12C renal
  GI50: 2.16 µM
  TGI: 5.95 µM
HS 578T breast
  GI50: 3.95 µM
  TGI: 35.4 µM
UACC-62 melanoma
  GI50: 1.61 µM
  TGI: 3.26 µM
SF-295 CNS
  GI50: 18.3 µM
  TGI: 32.7 µM
M14 melanoma
  GI50: 1.86 µM
  TGI: 4.37 µM
MDA-MB-435
  GI50: 1.73 µM
  TGI: 3.44 µM
HOP-62 NSCLC
  GI50: 13.2 µM
  TGI: 27.1 µM
UACC-257 melanoma
  GI50: 1.74 µM
  TGI: 4.07 µM
DU-145 prostate
  GI50: 1.95 µM
  TGI: 4.07 µM
IGROV1 ovarian
  GI50: 2.44 µM
  TGI: 7.24 µM
CAKI-1 renal
  GI50: 11.7 µM
  TGI: 24.4 µM
OVCAR-3 ovarian
  GI50: 0.519 µM
  TGI: 1.72 µM
HCC-2998 colon
  GI50: 2.11 µM
  TGI: 4.46 µM
TK-10 renal
  GI50: 1.92 µM
  TGI: 3.85 µM
SK-MEL-28 melanoma
  GI50: 1.74 µM
  TGI: 3.28 µM
OVCAR-4 ovarian
  GI50: 2.69 µM
  TGI: 8.09 µM
MDA-MB-231 breast
  GI50: 2.02 µM
  TGI: 3.98 µM
NCI/ADR-RES ovarian
  GI50: 47.8 µM
  TGI: > 100 µM
SF-268 CNS
  GI50: 2.67 µM
  TGI: 10.9 µM
SK-MEL-5 melanoma
  GI50: 2.36 µM
  TGI: 6.27 µM
COLO 205 colon
  GI50: 1.74 µM
  TGI: 3.47 µM
SK-OV-3 ovarian
  GI50: 30.3 µM
  TGI: > 100 µM
HCT-15 colon
  GI50: 3.22 µM
  TGI: 13.6 µM
OVCAR-5 ovarian
  GI50: 2.69 µM
  TGI: 5.8 µM
RPMI-8226 leukemia
  GI50: 1.21 µM
  TGI: 4.78 µM
BT-549 breast
  GI50: 1.55 µM
  TGI: 2.91 µM
EKVX NSCLC
  GI50: 4.82 µM
  TGI: 17.6 µM
A498 renal
  GI50: 3.45 µM
  TGI: 9.55 µM
T-47D breast
  GI50: 2.22 µM
  TGI: 7.21 µM
MALME-3M melanoma
  GI50: 0.933 µM
  TGI: 2.41 µM
A549 NSCLC
  GI50: 17.2 µM
  TGI: 37 µM
HOP-92 NSCLC
  GI50: 1.85 µM
  TGI: 3.55 µM
HL-60(TB) leukemia
  GI50: 0.925 µM
  TGI: 5.3 µM
ACHN renal
  GI50: 1.84 µM
  TGI: 3.78 µM
MCF7 breast
  GI50: 1.75 µM
  TGI: 7.72 µM
HT29 colon
  GI50: 1.86 µM
  TGI: 3.84 µM
NCI-H460 lung
  GI50: 5.28 µM
  TGI: 22.2 µM
SNB-19 CNS
  GI50: 4.8 µM
  TGI: 19.4 µM
RXF 393 renal
  GI50: 1.43 µM
  TGI: 2.83 µM
K-562 leukemia
  GI50: 0.501 µM
  TGI: 18.4 µM
SNB-75 CNS
  GI50: 3.41 µM
  TGI: 15.2 µM
MOLT-4 leukemia
  GI50: 1.14 µM
  TGI: 5.2 µM
OVCAR-8 ovarian
  GI50: 2.32 µM
  TGI: 5.39 µM
UO-31 renal
  GI50: 2.19 µM
  TGI: 5.09 µM
KM12 colon
  GI50: 2.96 µM
  TGI: 11.6 µM
PC-3 prostate
  GI50: 2.84 µM
  TGI: 9.54 µM
SF-539 CNS
  GI50: 1.84 µM
  TGI: 3.45 µM
NCI-H226 lung
  GI50: 14.6 µM
  TGI: 32.8 µM
HCT-116 colon
  GI50: 0.382 µM
  TGI: 1.44 µM
SK-MEL-2 melanoma
  GI50: 2.22 µM
  TGI: 5.57 µM
786-0 renal
  GI50: 1.61 µM
  TGI: 3.33 µM
NCI-H522 lung
  GI50: 0.406 µM
  TGI: 1.77 µM

## C[n+]1c(-c2ccccc2)c2cc(N)ccc2c2ccccc21
U251 CNS
  GI50: 1.39 µM
  TGI: > 44.3 µM
SN12C renal
  GI50: 2.13 µM
  TGI: 20.2 µM
HS 578T breast
  GI50: 2.76 µM
  TGI: 12.3 µM
UACC-62 melanoma
  GI50: 2 µM
  TGI: 5.03 µM
SF-295 CNS
  GI50: 5.68 µM
  TGI: > 78.1 µM
M14 melanoma
  GI50: 8.94 µM
  TGI: 32.7 µM
LOX IMVI melanoma
  GI50: 4.16 µM
  TGI: > 70.7 µM
MDA-MB-435
  GI50: 3.22 µM
  TGI: 14.2 µM
HOP-62 NSCLC
  GI50: 7.13 µM
  TGI: 38.2 µM
UACC-257 melanoma
  GI50: 4.73 µM
  TGI: > 100 µM
DU-145 prostate
  GI50: 4.12 µM
  TGI: 57.3 µM
IGROV1 ovarian
  GI50: 5.78 µM
  TGI: > 44.2 µM
CAKI-1 renal
  GI50: > 59.8 µM
  TGI: > 100 µM
SW-620 colon
  GI50: 3.38 µM
  TGI: 50.5 µM
OVCAR-3 ovarian
  GI50: 3.48 µM
  TGI: 22.2 µM
HCC-2998 colon
  GI50: 2 µM
  TGI: 7.97 µM
TK-10 renal
  GI50: 8.69 µM
  TGI: > 59.5 µM
SK-MEL-28 melanoma
  GI50: 2.19 µM
  TGI: 4.95 µM
OVCAR-4 ovarian
  GI50: 2.84 µM
  TGI: 16 µM
MDA-MB-231 breast
  GI50: 13.3 µM
  TGI: 60 µM
NCI/ADR-RES ovarian
  GI50: > 100 µM
  TGI: > 100 µM
SF-268 CNS
  GI50: 0.534 µM
  TGI: 7.07 µM
SK-MEL-5 melanoma
  GI50: 2.11 µM
  TGI: 6.5 µM
COLO 205 colon
  GI50: 1.97 µM
  TGI: 6 µM
SK-OV-3 ovarian
  GI50: 11.7 µM
  TGI: > 91.9 µM
HCT-15 colon
  GI50: > 100 µM
  TGI: > 100 µM
OVCAR-5 ovarian
  GI50: 25.4 µM
  TGI: > 100 µM
CCRF-CEM leukemia
  GI50: 3.4 µM
  TGI: 29.5 µM
RPMI-8226 leukemia
  GI50: 1.64 µM
  TGI: 9.75 µM
BT-549 breast
  GI50: 2.44 µM
  TGI: 16.7 µM
EKVX NSCLC
  GI50: 7.97 µM
  TGI: > 100 µM
A498 renal
  GI50: 19.6 µM
  TGI: > 79.5 µM
T-47D breast
  GI50: 2.42 µM
  TGI: 14.9 µM
MALME-3M melanoma
  GI50: 1.98 µM
  TGI: 6.63 µM
A549 NSCLC
  GI50: 5.1 µM
  TGI: > 47.7 µM
HOP-92 NSCLC
  GI50: 2.57 µM
  TGI: 20 µM
HL-60(TB) leukemia
  GI50: 6.01 µM
  TGI: 25.1 µM
ACHN renal
  GI50: > 63.7 µM
  TGI: > 100 µM
MCF7 breast
  GI50: 2.43 µM
  TGI: 17.9 µM
HT29 colon
  GI50: 3.45 µM
  TGI: 22.3 µM
NCI-H460 lung
  GI50: 3.2 µM
  TGI: 26.4 µM
SNB-19 CNS
  GI50: 2.09 µM
  TGI: 20.6 µM
RXF 393 renal
  GI50: 26.3 µM
  TGI: > 100 µM
NCI-H23 lung
  GI50: 2.28 µM
  TGI: 12.2 µM
K-562 leukemia
  GI50: 2.51 µM
  TGI: 28.4 µM
SNB-75 CNS
  GI50: 1.28 µM
  TGI: 3.07 µM
MOLT-4 leukemia
  GI50: 1.99 µM
  TGI: 20.5 µM
OVCAR-8 ovarian
  GI50: 12.4 µM
  TGI: > 100 µM
UO-31 renal
  GI50: > 83.8 µM
  TGI: > 100 µM
KM12 colon
  GI50: 2.87 µM
  TGI: 14.8 µM
PC-3 prostate
  GI50: 4.45 µM
  TGI: 31.8 µM
SF-539 CNS
  GI50: 3.49 µM
  TGI: 15.5 µM
NCI-H226 lung
  GI50: 8.7 µM
  TGI: > 58.5 µM
HCT-116 colon
  GI50: 2.75 µM
  TGI: 44.6 µM
SK-MEL-2 melanoma
  GI50: 6.08 µM
  TGI: 32.9 µM
786-0 renal
  GI50: 7.87 µM
  TGI: > 100 µM
NCI-H522 lung
  GI50: 3.91 µM
  TGI: > 100 µM
